Experimental data reported in PubChem BioAssay AID1918953 (Molecular Pharmacology Branch, DTP, NCI, 2023).
Several values for one entry are separate records, joined by “and”; a condition that tells them apart may be missing. Equal values may be shown once.

Test system: MDA-MB-231 complex spheroid viability
Experiment: Anticancer human tumor MDA-MB-231/ATCC cell line growth inhibition;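 further: drug exposure lasted 7 days starting on day 3 of spheroid growth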
Conditions: for viability, T/C: stronger effect = lower value
Source text: Multicellular complex tumor spheroid response to LSD1 Inhibitor Iadademstat in combination with a variety of drugs and investigational agents in selected tumor cell lines
The current study was undertaken to assess response to LSD1 inhibitors in combination with standard-of-care drugs and investigational agents in solid tumor complex spheroid models as well as in the K-562 leukemia. Complex spheroids include a stromal component modeled by human endothelial cells (HUVEC) and fibroblasts modeled by human mesenchymal stem cells (MSCs). The concentration ranges selected for each drug and investigational agent were based upon clinically achievable concentrations if the clinical Cmax of the agent was known.
Compounds. The drugs and investigational agents used in this study are listed on Table 1. All of the agents used, including staurosporine (NSC755774) and gemcitabine (NSC613327), were obtained from the Developmental Therapeutics Program, NCI. FDA-approved anticancer drugs are available from the NCI at http://dtp.nci.nih.gov/branches/dscb/oncology_drugset_explanation.html. Drugs and investigational agents were >95% pure by proton nuclear magnetic resonance (NMR) and liquid chromatography/mass spectrometry (LC/MS). Stock solutions were prepared at 400x in DMSO, stored at -70 degrees C, and diluted in fresh medium prior to their use. The final concentration of DMSO in cell culture wells never exceeded 0.25% (v/v). The FDA-approved anticancer drug set is available from the Developmental Therapeutics Program at https://dtp.cancer.gov/organization/dscb/obtaining/available_plates.htm. All drugs and investigational agents were tested over a range starting from a high concentration at or near the clinical Cmax and decreasing in half-log increments. If the clinical Cmax for an agent had not been determined, the highest concentration tested was 10 microM.
Cell Lines. The patient-derived cancer cell (PDC) lines: 292921-168-R-J2-PDC, K24384-001-R-PDC, and 521955-158-R2-J5-PDC pancreatic carcinomas, 556581-035-R-J1 ovarian carcinoma, 324938-238-R-J1-PDC, 855422-203-R-J1-PDC and 883617-216-R-J1-PDC urothelial bladder carcinomas, 743489-274-T-PDC renal cell carcinoma, 138582-R-J1 Merkel cell tumor, K60290-347-R-J1 and K57222-313-R-J1-PDC glioblastomas, 653999-131-R-J2-PDC, LG0703-F948-PDC, and 349418-098-R-PDC non-small cell lung carcinomas, 885512-296-R-J2-PDC, 171881-019-R-J1-PDC breast carcinomas and 186277-243-T-J2-PDC and 233499-124-R-J2-PDC colon carcinomas were obtained from the NCI Patient-Derived Models Repository (PDMR, https://pdmr.cancer.gov). The established cell lines NCI/ADR-RES (RRID:CVCL_14520 and OVCAR-5 (RRID:CVCL_1628) ovarian carcinomas, 786-O (RRID:CVCL_1051) and A498 (RRID:CVCL_A498) renal cell carcinoma, NCI-H211 (ATCC, cat. CRL-5824; RRID:CVCL_1529), NCI-H196 (ATCC, cat. CRL-5823, RRID:CVCL_1509), SW 1271 (ATCC, cat. CRL-2177, RRID:CVCL_1716) and NCI-H1876 (ATCC, cat. CRL-5902, RRID:CVCL_1503) small cell lung carcinomas, MDA-MB-231 (RRID:CVCL_0062) and MDA-MB-468 (RRID:CVCL_0419)breast carcinomas (10-12). Pooled donor human umbilical vein endothelial cells (HUVEC, Lonza, cat. CC-2519) and human mesenchymal stem cells (hMSC, Lonza, cat. PT-2501) were purchased from Lonza (Walkersville, MD).
Cell Culture. All cells were maintained in an incubator at 37 degrees C and 5% CO2 with 95% humidity. The PDC lines were cultured according to standard operating procedures established by the NCI PDMR (https://pdmr.cancer.gov). Briefly all PDCs were thawed and cultured in Matrigel-coated flasks prepared with a working solution of 1X Ham's F-12 nutrient mix, without supplementation (Invitrogen, Waltham, MA, cat. 11765054), 100 U/mL penicillin-streptomycin (Invitrogen, cat. 15140122), and 2.5% Matrigel (Corning Inc., Corning, NY, cat. 354248) for the first three passages. […]

Row | SMILES | IC50 (curve of compound) | viability, T/C (compound 0.0316 µM) | viability, T/C (compound 0.1 µM) | viability, T/C (compound 0.316 µM) | viability, T/C (compound 1 µM) | viability, T/C (compound 10 µM) | viability, T/C (compound 0.00949 µM) | viability, T/C (compound 0.03 µM) | viability, T/C (compound 0.0949 µM) | viability, T/C (compound 0.3 µM) | also measured
1 | NC1CC1c1ccc(-c2cccc(O)c2)cc1 (stereo not drawn) |  |  |  | 68.1% [middle of 25 runs] | 62.9% [middle of 25 runs] | 47.7% [middle of 25 runs] |  |  |  |  | viability, T/C (compound 3.16 µM): 64.5% [middle of 25 runs]
2 | NC1CCC(NC2CC2c2ccccc2)CC1 (stereo not drawn) |  |  | 102% [middle of 25 runs] | 106% and 102% | 99.7% [middle of 25 runs] | 61% [middle of 23 runs] |  |  |  |  | IC50 (compound alone, run of 01/18/2022): > 10000 nM
3 | NS(=O)(=O)OCC1CC(n2ccc3c(NC4CCc5ccccc54)ncnc32)CC1O (stereo not drawn) | 230 nM and 79.9 nM |  |  |  |  |  | 140% and 117% | 119% and 91% | 71.6% and 43.9% | 43.7% and 22.5% | viability, T/C (compound 0.949 µM): 37.5% and 26.5%; viability, T/C (compound 3 µM): 34.5% and 26.1%
4 | Nc1ccn(C2OC(CO)C(O)C2(F)F)c(=O)n1 (stereo not drawn) | < 0.949 nM |  |  |  |  |  | 15.5% and 19.9% | 12.6% and 17.8% | 8.77% and 15.2% | 5.47% and 14% | viability, T/C (compound 0.000949 µM): 20.4% and 39.3%; viability, T/C (compound 0.003 µM): 17.2% and 31%
5 | Nc1ncn(C2CC(O)C(CO)O2)c(=O)n1 (stereo not drawn) | > 1000 nM | 83.2% and 87.7% | 75.1% and 78.5% | 64.4% and 69.5% | 53.7% and 56.2% |  |  |  |  |  | viability, T/C (compound 0.00316 µM): 99.5% and 83.9%; viability, T/C (compound 0.01 µM): 95.3% and 91.9%
6 | Nc1ncn(C2CC(O)C(CO)S2)c(=O)n1 (stereo not drawn) | 14.8 nM and 8.3 nM |  |  |  |  |  | 61% and 45.8% | 37.2% and 31.3% | 20.2% and 19.9% | 11.1% and 9.34% | viability, T/C (compound 0.000949 µM): 90.3% and 85%; viability, T/C (compound 0.003 µM): 72.3% and 68.7%
7 | O=C(c1cc(Cc2n[nH]c(=O)c3ccccc23)ccc1F)N1CCN(C(=O)C2CC2)CC1 | > 10000 nM and 3920 nM | 92.4% and 88.5% | 97.9% and 79.2% | 85.6% and 79.3% | 72.1% and 69.9% | 56.6% and 32.6% |  |  |  |  | viability, T/C (compound 3.16 µM): 68.6% and 53.2%

Second part, led by results:

Row | IC50 (curve of compound) | SMILES | viability, T/C (compound 0.0316 µM) | viability, T/C (compound 0.1 µM) | viability, T/C (compound 0.316 µM) | viability, T/C (compound 1 µM) | viability, T/C (compound 10 µM) | viability, T/C (compound 0.00949 µM) | viability, T/C (compound 0.03 µM) | viability, T/C (compound 0.0949 µM) | viability, T/C (compound 0.3 µM) | also measured
8 | 449 nM and 700 nM | COc1ccc([C@@H](O)c2cc(-c3ncnc4cc(N5CCOCC5)ccc34)c(F)cc2Cl)nn1 | 93.7% and 82% | 76.6% and 85.5% | 53.9% and 64.1% | 39.6% and 43.1% | 23.2% and 13.2% |  |  |  |  | viability, T/C (compound 3.16 µM): 27.3% and 22.8%
9 | > 100 nM | Cn1ncnc1C1c2n[nH]c(=O)c3cc(F)cc(c23)NC1c1ccc(F)cc1 (stereo not drawn) | 78.8% and 65.3% | 74.7% and 72.4% |  |  |  |  |  |  |  | viability, T/C (compound 0.000316 µM): 91% and 96.8%; viability, T/C (compound 0.001 µM): 95.8% and 101%; viability, T/C (compound 0.00316 µM): 84.4% and 94.8%; viability, T/C (compound 0.01 µM): 85.8% and 78.8%
10 | 53.2 nM and 31.4 nM | Nc1ccccc1NC(=O)c1ccc(CNC(=O)OCc2cccnc2)cc1 |  |  |  |  |  | 81.5% and 86.7% | 56.5% and 52.2% | 39.4% and 21.1% | 28.1% and 12.2% | viability, T/C (compound 0.949 µM): 15.4% and 4.07%; viability, T/C (compound 3 µM): 3.56% and 0.18%
11 | 81.6 nM and 30.6 nM | O=C(C=Cc1cccc(S(=O)(=O)Nc2ccccc2)c1)NO |  |  |  |  |  | 82.2% and 70.1% | 62.3% and 50.3% | 52.9% and 31.3% | 24.5% and 17.3% | viability, T/C (compound 0.949 µM): 13.2% and 0.72%
12 | 5.04 nM and < 3.16 nM | O=C(C=Cn1cnc(-c2cc(C(F)(F)F)cc(C(F)(F)F)c2)n1)NNc1cnccn1 | 11.5% and 11.8% | 9.25% and 3.52% | 10.8% and 3.53% | 5.27% and 4.37% |  |  |  |  |  | viability, T/C (compound 0.00316 µM): 61.8% and 35.1%; viability, T/C (compound 0.01 µM): 32.6% and 31.3%
